Read-outs that look alike come from different tables or passages of the source.
What was measured:
[1] = target: T1, hS1P1 (Homo sapiens, UniProt P21453); experiment: S1P receptor subtype selectivity, S1P-induced [Ca2+]i increase in CHO-K1 cells stably expressing S1P1 (Calcium3); type: cell-based
T1 construct: expressed in transfected cells
Procedure: (§1) The selectivity to the S1P receptor subtype was examined in the following manner. […] Furthermore, a Calcium3 (Molecular Devices, Inc.) solution prepared in HBSS (+) buffer, which is a fluorescent Ca^2+ indicator, was added, and the cells were incubated for 60 minutes at 37° C. Then, 100 μL of a test compound solution prepared to a concentration of 2×10 μmol/L was added, and the cells were incubated for 20 minutes at 37° C. […] The indicator was prepared and used according to the instruction manual.
(§2) A solution of the test compound was prepared by dissolving each of the test compounds in DMSO to a concentration of 10 mmol/L, and then diluting the solution with an HBSS (+) buffer solution to the predetermined concentration. […] The measurement values were obtained by subtracting the maximum RFU value for the blind test from the maximum RFU values for control or each test compounds. A decrease in the measurement value for the test compound relative to the control was indicated as the suppression rate (%), from which the IC50 value was calculated.

[2] = target: T2, hS1P3 (Homo sapiens, UniProt Q99500); experiment: S1P receptor subtype selectivity, S1P-induced [Ca2+]i increase in CHO-K1 cells stably expressing S1P3 (Calcium3); type: cell-based
Procedure: as §1, §2

[3] = target: T3, hS1P2 (Homo sapiens, UniProt O95136); experiment: S1P receptor subtype selectivity, S1P-induced [Ca2+]i increase in CHO-K1 cells stably expressing S1P2 (Calcium3); type: cell-based
T3 construct: expressed in transfected cells
Procedure: as §1, §2

[4] = target: T2, hS1P3; experiment: Suppressive effect on S1P-induced increase in [Ca2+]i, CHO-K1 cells expressing S1P3 (Fura 2-AM), IC50; type: cell-based; conditions: S1P solution 50 nmol/L, read-out: hS1P3 suppression IC50
[5] = test system: isolated heart of rat; experiment: Effect on the coronary blood flow rate in isolated heart of rat (Langendorff perfusion); conditions: S1P 10^−9 M to 10^−7 M in perfusion solution
Procedure: A male SD rat weighing about 350 g was anesthetized with pentobarbital sodium (50 mg/kg), and heparin (1000 U/kg) was administered through the lower limb vein. The heart was rapidly isolated and connected to a Langendorff perfusion apparatus. […] The temperature of the perfusion solution was set at 37±0.2° C., and gassed with a gas mixture (95% O2 and 5% CO2) such that the oxygen partial pressure was 550 mmHg or more. The coronary perfusion flow rate was measured with an electromagnetic blood flow meter through a probe installed in the circulation pathway. Furthermore, the effects on the heart function were investigated using the left ventricular developed pressure (LVDP), the first derivative of the left ventricular pressure (LV±dp/dt) and the heart rate (HR) as indices. The LVDP was determined by subtracting the left ventricular end diastolic pressure (LVEDP) from the left ventricular systolic pressure (LVSP), which was detected with a latex balloon inserted into the left ventricle, and measured with a pressure strain meter via a pressure transducer. […] Signals measured with the pressure strain meter were conducted to a differential meter and a heart rate meter, to measure the first derivative of the left ventricular pressure (LV±dp/dt) and the heart rate (HR). […]

[6] = 10 μM, CHO-K1 stably expressing S1P1, S1P solution 100 nmol/L, Calcium3, read-out: Suppression rate at 10 μM (%) hS1P1
[7] = 10 μM, CHO-K1 stably expressing S1P3, S1P solution 50 nmol/L, Calcium3, read-out: Suppression rate at 10 μM (%) hS1P3
[8] = 10 μM, CHO-K1 stably expressing S1P2, S1P solution 100 nmol/L, Calcium3, read-out: Suppression rate at 10 μM (%) hS1P2
[9] = CHO-K1, read-out: Suppression rate at 10 μM (%) hS1P1
[10] = CHO-K1, read-out: Suppression rate at 10 μM (%) hS1P2
[11] = CHO-K1, read-out: Suppression rate at 10 μM (%) hS1P3

T2 sequence (Q99500 whole entry): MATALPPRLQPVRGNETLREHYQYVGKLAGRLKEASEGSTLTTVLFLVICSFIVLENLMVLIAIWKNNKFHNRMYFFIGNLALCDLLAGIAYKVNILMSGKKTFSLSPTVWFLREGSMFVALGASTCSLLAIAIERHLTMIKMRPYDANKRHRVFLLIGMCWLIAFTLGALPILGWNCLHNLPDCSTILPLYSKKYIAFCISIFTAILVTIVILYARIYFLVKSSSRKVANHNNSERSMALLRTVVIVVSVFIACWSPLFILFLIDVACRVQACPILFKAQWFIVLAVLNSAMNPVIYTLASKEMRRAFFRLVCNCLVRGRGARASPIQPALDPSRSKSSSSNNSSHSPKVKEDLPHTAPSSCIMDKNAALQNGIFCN
T3 sequence (O95136 whole entry): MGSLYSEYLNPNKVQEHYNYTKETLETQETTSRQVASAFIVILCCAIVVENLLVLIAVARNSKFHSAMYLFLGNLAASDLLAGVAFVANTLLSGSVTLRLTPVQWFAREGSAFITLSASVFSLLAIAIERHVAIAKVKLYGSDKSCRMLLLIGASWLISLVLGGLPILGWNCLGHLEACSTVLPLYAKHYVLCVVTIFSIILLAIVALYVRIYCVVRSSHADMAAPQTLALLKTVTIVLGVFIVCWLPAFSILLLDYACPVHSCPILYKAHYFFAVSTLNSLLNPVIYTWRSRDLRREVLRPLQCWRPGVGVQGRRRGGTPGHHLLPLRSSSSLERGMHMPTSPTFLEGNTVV
T1 sequence (P21453 whole entry): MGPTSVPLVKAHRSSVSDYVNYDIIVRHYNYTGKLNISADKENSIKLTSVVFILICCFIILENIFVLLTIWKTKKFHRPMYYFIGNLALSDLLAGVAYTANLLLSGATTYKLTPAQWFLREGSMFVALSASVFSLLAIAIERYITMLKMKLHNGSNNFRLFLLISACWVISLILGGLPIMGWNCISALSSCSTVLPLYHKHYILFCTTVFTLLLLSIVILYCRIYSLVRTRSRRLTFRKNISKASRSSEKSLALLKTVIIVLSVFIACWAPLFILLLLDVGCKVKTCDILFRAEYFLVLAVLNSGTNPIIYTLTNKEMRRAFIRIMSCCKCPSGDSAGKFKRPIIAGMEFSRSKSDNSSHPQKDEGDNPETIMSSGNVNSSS

inhibition at 10 µM [1, 6]	inhibition at 10 µM [2, 7]	inhibition at 10 µM [3, 8]	SMILES	IC50 [4]	inhibition at 10 µM [1, 9]	inhibition at 10 µM [3, 10]	inhibition at 10 µM [2, 11]	coronary blood flow rate, effect of S1P [5]
18.6%	68.5%	-0.4%	O=C(C(=NNc1ccc(Cl)cc1)Nc1cccc(F)c1F)c1ccccc1 [Compound 3, 2-(4-chlorophenylhydrazono)-2-(2,3-difluorophenylamino)acetophenone]	14700 nM	–	–	–	–
17.5%	91.1%	13.7%	O=C(C(=NNc1ccc(Cl)cc1)Nc1cccc(F)c1)N1CCCCC1 [Compound 21, [1-(4-Chlorophenylhydrazono)-1-(3-fluorophenylamino)acetyl]piperidine]	26800 nM	–	–	–	–
22%	101%	16%	CC(C)(C)C(=O)C(=NNc1ccc(F)cc1)Nc1ccc(F)cc1 [Compound 54, 1-(4-fluorophenylamino)-1-(4-fluorophenylhydrazono)-3,3-dimethyl-2-butanone]	4380 nM	–	–	–	–
20.8%	90.2%	15.5%	CC(C)(C)C(=O)C(=NNc1ccc(C(F)(F)F)cc1)Nc1ccc(F)cc1 [Compound 67, 1-(4-fluorophenylamino)-1-(4-trifluoromethylphenylhydrazono)-3,3-dimethyl-2-butanone]	8200 nM	–	–	–	–
20.4%	105%	23.2%	CC(C)(C)C(=O)C(=NNc1ccc(Br)cc1)Nc1ccc(F)cc1 [Compound 74, 1-(4-bromophenylhydrazono)-1-(4-fluorophenylamino)-3,3-dimethyl-2-butanone]	2320 nM	–	–	–	–
–	–	–	CC(C)(C)C(=O)C(=NNc1ccc(Br)cc1)Nc1ccc(Cl)cc1 [Compound 75, 1-(4-bromophenylhydrazono)-1-(4-chlorophenylamino)-3,3-dimethyl-2-butanone]	1170 nM	17%	17.9%	–	–
5.1%	103%	26.1%	CC(C)(C)C(=O)C(=NNc1ccc(Br)cc1)Nc1ccc(Br)cc1 [Compound 76, 1-(4-bromophenylamino)-1-(4-bromophenylhydrazono)-3,3-dimethyl-2-butanone]	1660 nM	–	–	–	–
–	–	–	C#Cc1ccc(NC(=NNc2ccc(Br)cc2)C(=O)C(C)(C)C)cc1 [Compound 78, 1-(4-bromophenylhydrazono)-1-(4-ethynylphenylamino)-3,3-dimethyl-2-butanone]	970 nM	25.1%	20.8%	105%	–
20.6%	–	26.3%	CC(C)(C)C(=O)C(=NNc1ccc(Br)cc1)Nc1ccc(Cl)c(Cl)c1 [Compound 80, 1-(4-bromophenylhydrazono)-1-(3,4-dichlorophenylamino)-3,3-dimethyl-2-butanone]	380 nM	–	–	–	–
28.3%	–	18.9%	CC(C)(C)C(=O)C(=NNc1ccc(Cl)c(Cl)c1)Nc1cccc(F)c1 [Compound 104, 1-(3,4-dichlorophenylhydrazono)-1-(3-fluorophenylamino)-3,3-dimethyl-2-butanone]	430 nM	–	–	–	–
–	–	–	C#Cc1ccc(NN=C(Nc2cccc(Cl)c2)C(=O)C(C)(C)C)cc1 [Compound 108, 1-(3-chlorophenylamino)-1-(4-ethynylphenylhydrazono)-3,3-dimethyl-2-butanone]	840 nM	11.1%	15.8%	–	–
–	–	–	C#Cc1ccc(NC(=NNc2ccc(Cl)cc2)C(=O)CCCC)cc1 [Compound 111, 1-(4-chlorophenylhydrazono)-1-(4-ethynylphenylamino)-2-hexanone]	1550 nM	-16.6%	23.1%	95.1%	–
22.1%	86.6%	12.8%	CCC(CC)C(=O)C(=NNc1ccc(Cl)cc1)Nc1ccc(F)cc1 [Compound 112, 1-(4-chlorophenylhydrazono)-1-(4-fluorophenylamino)-3-ethyl-2-pentanone]	1660 nM	–	–	–	–
5.9%	–	20.7%	CC(C)(C)CC(=O)C(=NNc1ccc(Cl)cc1)Nc1cccc(F)c1 [Compound 113, 1-(4-chlorophenylhydrazono)-1-(3-fluorophenylamino)-4,4-dimethyl-2-pentanone]	1780 nM	–	–	–	–
–	–	–	CCCCC(=O)C(=NNc1ccc(Cl)cc1)Nc1ccc(Cl)cc1 [Compound 115, 1-(4-chlorophenylamino)-1-(4-chlorophenylhydrazono)-2-hexanone]	2470 nM	24.3%	27%	–	–
–	–	–	C#Cc1ccc(NC(=NNc2ccc(Cl)cc2)C(=O)c2ccco2)cc1 [Compound 117, 1-(4-chlorophenylhydrazono)-1-(4-ethynylphenylamino)-2-(2-furyl)-2-ethanone]	2340 nM	20.4%	31.6%	–	–
–	–	–	C#Cc1ccc(NC(=NNc2ccc(Cl)cc2)C(=O)C(C)(C)CCl)cc1 [Compound 122, 4-chloro-1-(4-chlorophenylhydrazono)-1-(4-ethynylphenylamino)-3,3-dimethyl-2-butanone]	3860 nM	4.9%	7.1%	89.9%	–
15.7%	–	24.7%	C#Cc1ccc(NN=C(Nc2cccc(F)c2)C(=O)C(C)(C)C)cc1 [Compound 131, 1-(3-fluorophenylamino)-1-(4-ethynylphenylhydrazono)-3,3-dimethyl-2-butanone]	750 nM	–	–	–	–
–	–	–	CC(C)(C)C(=O)C(=NNc1ccc(Cl)cc1)Nc1cccc(Cl)c1 [Compound 133, 1-(3-chlorophenylamino)-1-(4-chlorophenylhydrazono)-3,3-dimethyl-2-butanone]	840 nM	16.7%	37.7%	–	–
36.4%	96.5%	29.8%	CC(C)(C)C(=O)C(=NNc1ccc(Cl)cc1)Nc1ccc(Br)cc1 [Compound 134, 1-(4-bromophenylamino)-1-(4-chlorophenylhydrazono)-3,3-dimethyl-2-butanone]	870 nM	–	–	–	–
–	–	–	C#Cc1ccc(NC(=NNc2ccc(Cl)cc2)C(=O)C(C)(C)C)cc1 [Compound 136, 1-(4-chlorophenylhydrazono)-1-(4-ethynylphenylamino)-3,3-dimethyl-2-butanone]	990 nM	40.3%	33.7%	94.3%	–
–	–	–	CCC(CC)C(=O)C(=NNc1ccc(Cl)cc1)Nc1cccc(Cl)c1 [Compound 137, 1-(3-chlorophenylamino)-1-(4-chlorophenylhydrazono)-3-ethyl-2-pentanone]	1590 nM	35.3%	30.1%	–	–
–	–	–	C#Cc1ccc(NN=C(Nc2ccc(C#C)cc2)C(=O)C(C)(C)C)cc1 [Compound 138, 1-(4-ethynylphenylamino)-1-(4-ethynylphenylhydrazono)-3,3-dimethyl-2-butanone]	1620 nM	14.1%	8%	79.9%	–
–	–	–	CC(C)(C)CC(=O)C(=NNc1ccc(Cl)cc1)Nc1ccc(Cl)cc1 [Compound 139, 1-(4-chlorophenylamino)-1-(4-chlorophenylhydrazono)-4,4-dimethyl-2-pentanone]	1700 nM	14.9%	40.6%	–	–
–	–	–	CC(C)(C)CC(=O)C(=NNc1ccc(Cl)cc1)Nc1cccc(Cl)c1 [Compound 140, 1-(3-chlorophenylamino)-1-(4-chlorophenylhydrazono)-4,4-dimethyl-2-pentanone]	1990 nM	18.3%	26.2%	–	–
–	–	–	CCCCCCCCCCCCC/C=C/[C@@H](O)[C@@H](N)COP(=O)(O)O [Compound S1P, sphingosine 1-phosphate]	–	–	–	–	significantly decreased
